Experimental data reported in patent publication US20090131470A1, “PYRAZOLE-SUBSTITUTED BENZIMIDAZOLE DERIVATIVES FOR USE IN THE TREATMENT OF CANCER AND AUTOIMMUNE DISORDERS” (priority 2005, published 2009).

Experiments:
Type in all cases: biochemical
GST-Chk1 enzyme = target: T1, GST-Chk1 enzyme (Homo sapiens, UniProt O14757); assay: Chk1 kinase assay (33P Chktide phosphorylation); settings: 0.01 mM ATP, 40 minutes at 30° C.; read-out: CHK-1 IC50
T1 sequence (O14757 1-476): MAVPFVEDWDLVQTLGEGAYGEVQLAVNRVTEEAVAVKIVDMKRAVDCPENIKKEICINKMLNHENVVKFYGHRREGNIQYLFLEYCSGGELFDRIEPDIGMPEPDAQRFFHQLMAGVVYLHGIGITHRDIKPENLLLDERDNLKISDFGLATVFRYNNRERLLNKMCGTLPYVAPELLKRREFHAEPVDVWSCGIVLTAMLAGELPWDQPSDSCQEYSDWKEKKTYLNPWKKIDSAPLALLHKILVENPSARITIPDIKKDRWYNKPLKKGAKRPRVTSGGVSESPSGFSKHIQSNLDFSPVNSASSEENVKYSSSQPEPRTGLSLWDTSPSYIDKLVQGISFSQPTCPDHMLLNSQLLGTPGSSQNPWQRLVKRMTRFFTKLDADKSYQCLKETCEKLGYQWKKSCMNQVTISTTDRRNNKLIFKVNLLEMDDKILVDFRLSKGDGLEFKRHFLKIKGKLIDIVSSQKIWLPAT
Method: The assay mixture containing the inhibitor and Chk1 enzyme was mixed together in a microtiter plate in a final volume of 50 μl and incubated for 40 minutes at 30° C. […] The reaction was stopped by adding 50 μl of 50 mM phosphoric acid. 90 μl of the mixture was transferred to a pre-wetted 96-well multi-screen MAPHNOB filtration plate (Millipore) and filtered on a vacuum manifold. The filter plate was washed with 3 successive additions of 200 μl 50 mM phosphoric acid and then with 100 μl methanol. The filtration plate was dried for 10 min at 65° C., scintillant added and phosphorylated peptide quantified in a scintillation counter (Trilux, PerkinElmer)

PDK1 = target: T2, PDK1 (Homo sapiens, UniProt O15530); assay: PDK1 kinase assay (33P peptide phosphorylation); settings: 0.01 mM ATP, 60 min at 30° C.; read-out: PDK-1 IC50
T2 sequence (O15530 1-556): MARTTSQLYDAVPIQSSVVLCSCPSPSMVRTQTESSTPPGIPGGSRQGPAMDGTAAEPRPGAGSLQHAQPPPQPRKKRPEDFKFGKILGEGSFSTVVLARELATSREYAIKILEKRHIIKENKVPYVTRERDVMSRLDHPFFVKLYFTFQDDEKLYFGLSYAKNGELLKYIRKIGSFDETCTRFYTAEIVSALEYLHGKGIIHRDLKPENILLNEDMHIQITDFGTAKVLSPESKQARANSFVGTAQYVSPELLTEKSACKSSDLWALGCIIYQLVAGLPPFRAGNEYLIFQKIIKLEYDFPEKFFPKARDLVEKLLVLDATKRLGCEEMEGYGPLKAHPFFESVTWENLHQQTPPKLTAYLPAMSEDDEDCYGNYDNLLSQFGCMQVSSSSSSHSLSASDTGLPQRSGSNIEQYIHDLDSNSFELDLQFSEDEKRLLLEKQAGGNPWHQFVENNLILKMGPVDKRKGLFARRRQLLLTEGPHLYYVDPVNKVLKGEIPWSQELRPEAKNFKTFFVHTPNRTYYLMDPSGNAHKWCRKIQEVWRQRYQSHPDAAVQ
Method: (§1) The assay mixture containing the inhibitor and PDK1 enzyme was mixed together in a microtiter plate in a final volume of 50 μl and incubated for 60 min at 30° C. The assay mixture contained 0.01 mM unlabeled ATP, 0.01 μCi/μl ^33P-γ-ATP, 0.075 mM peptide, 0.1 mg/ml BSA, 7.5 mM magnesium acetate, 0.05M Tris.HCl, pH 7.5, 0.5% 2-mercaptoethanol. The reaction was stopped by adding 50 μl of 50 mM phosphoric acid. 90 μl of the mixture were transferred to a pre-wetted 96-well Multiscreen MAPHNOB filtration plate (Millipore) and filtered on a vacuum manifold. The filter plate was washed with 3 successive additions of 200 μl 50 mM phosphoric acid and then with 100 μl methanol. The filtration plate was dried for 10 min at 65° C., scintillant added and phosphorylated peptide quantified in a scintillation counter (Trilux, PerkinElmer)

[1] = target: CDK-2 enzyme, complexed with cyclin A (Homo sapiens, UniProt P24941); assay: CDK2 kinase assay (33P peptide phosphorylation); settings: 0.1 mM ATP, cyclin A complex
Method: as §1, with “and CDK-2 enzyme, complexed with cyclin A (0.4 U/ml)” for “and PDK1 enzyme”, “for 40” for “for 60”, “contained 0.1” for “contained 0.01”, “^33P-γ-ATP, 0.03” for “^33P-γ-ATP, 0.075”, “acetate, 50 mM HEPES-NaOH,” for “acetate, 0.05M Tris.HCl,”, “pH 7.5.” for “pH 7.5, 0.5% 2-mercaptoethanol.”

PKA = target: T3, PKA (Homo sapiens, UniProt P17612); assay: PKA kinase assay (Kemptide substrate); settings: 100 μM ATP
T3 construct: purchased Upstate
Method: as §1, with “and CDK-2 enzyme, complexed with cyclin A (0.4 U/ml)” for “and PDK1 enzyme”, “for 40” for “for 60”, “contained 0.1” for “contained 0.01”, “^33P-γ-ATP, 0.03” for “^33P-γ-ATP, 0.075”, “acetate, 50 mM HEPES-NaOH,” for “acetate, 0.05M Tris.HCl,”, “pH 7.5.” for “pH 7.5, 0.5% 2-mercaptoethanol.”
The PKA assay was incubated at 30° C. for 30 minutes.

Akt1 = target: T4, Akt1 (Homo sapiens, UniProt P31749); assay: Akt1 kinase assay (Histone H1 substrate); settings: 200 μM ATP, read-out: AKT-1 IC50
T4 construct: purchased Upstate
T4 sequence (P31749 whole entry, species assumed): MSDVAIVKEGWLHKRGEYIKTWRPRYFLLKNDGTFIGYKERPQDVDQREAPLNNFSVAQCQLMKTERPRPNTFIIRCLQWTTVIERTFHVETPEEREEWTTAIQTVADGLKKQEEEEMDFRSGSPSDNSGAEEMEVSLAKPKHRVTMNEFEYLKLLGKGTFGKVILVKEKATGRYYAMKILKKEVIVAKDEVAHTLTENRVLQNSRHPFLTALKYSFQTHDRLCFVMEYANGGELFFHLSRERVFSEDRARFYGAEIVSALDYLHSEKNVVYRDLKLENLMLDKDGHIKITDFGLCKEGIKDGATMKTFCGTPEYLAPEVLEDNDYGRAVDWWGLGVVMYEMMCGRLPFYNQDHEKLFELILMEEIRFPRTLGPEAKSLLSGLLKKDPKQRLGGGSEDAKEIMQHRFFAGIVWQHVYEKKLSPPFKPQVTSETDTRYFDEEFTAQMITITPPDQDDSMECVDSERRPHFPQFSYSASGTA
Method: Assays for the cyclin dependent kinase activity were carried out by monitoring the phosphorylation of a synthetic peptide, HATTPKKKRK. The assay mixture containing the inhibitor and CDK-2 enzyme, complexed with cyclin A (0.4 U/ml) was mixed together in a microtiter plate in a final volume of 50 μl and incubated for 40 min at 30° C. The assay mixture contained 0.1 mM unlabeled ATP, 0.01 μCi/μl ^33P-γ-ATP, 0.03 mM peptide, 0.1 mg/ml BSA, 7.5 mM magnesium acetate, 50 mM HEPES-NaOH, pH 7.5. The reaction was stopped by adding 50 μl of 50 mM phosphoric acid. 90 μl of the mixture were transferred to a pre-wetted 96-well Multiscreen MAPHNOB filtration plate (Millipore) and filtered on a vacuum manifold. The filter plate was washed with 3 successive additions of 200 μl 50 mM phosphoric acid and then with 100 μl methanol. The filtration plate was dried for 10 min at 65° C., scintillant added and phosphorylated peptide quantified in a scintillation counter (Trilux, PerkinElmer)
Protocol for the Akt assay is the same for CDK2 except that, 3 nM Akt1 (Upstate) was used with Histone H1 as substrate with a final ATP concentration of 200 μM. The reaction was incubated at 30° C. for 40 minutes.

Row | Compound | IC50 (GST-Chk1 enzyme) [µM] | IC50 (PDK1) [µM] | IC50 [1] [µM] | IC50 (PKA) [µM] | IC50 (Akt1) [µM]
1 | Cc1[nH]nc(-c2nc3ccc(C(C)C)cc3[nH]2)c1C(=O)NC1CCN(C)CC1 [Example 46] | 0.014 | 0.036 | 24.2 | 3.8 | > 10
2 | Cc1[nH]nc(-c2nc3ccc(C4CC4)cc3[nH]2)c1C(=O)NC1CN2CCC1CC2 (stereo not shown) [Example 47] | 0.085 | 0.106 | > 50 | 3.82 | > 10
